This is an account of results in PubChem BioAssay (NCI).

Structures are written as SMILES. Several values for one entry are separate records, joined by “and”; a condition that tells them apart may be missing. Equal entries are not always repeated.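 A five-concentration, 48-hour dose response in 96-well plates underlies each endpoint, interpolated linearly between surrounding concentrations. GI50 is the concentration that inhibits growth by half. TGI: total growth inhibition.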

The TGI is the concentration giving total growth inhibition. Read a low TGI as greater sensitivity of the cells. One may read the GI50 as the concentration that inhibits growth by half.

Common to all, as to assay: DTP human tumour cell line panel, 48 h
Assay [1] has as its system SF-295 CNS.
For assay [2], the system named is K-562 leukemia.
Assay [3] has as its system MDA-MB-435.
The test system of assay [4] is PC-3 prostate.
The test system of assay [5] is UACC-257 melanoma.
The subject of assay [6] is HCT-116 colon.
The test system of assay [7] is RXF 393 renal.
In assay [8] the test system is OVCAR-5 ovarian.
Assay [9] concerns SK-MEL-2 melanoma.
In assay [10] the test system is BT-549 breast.

Consider `O=c1nc2ccc3sc4ccccc4c(=O)c3n2c(=O)[nH]1`, for which the TGI in [1], in assay [2], in assay [3], in assay [4], in [5] and in assay [6] was above 100 µM in each case. Also, the TGI in assay [7] and in assay [8] was above 100 µM each time.

On to `COc1ccc(NC(=O)CC(=O)N2N=C(N(c3ccccc3)c3ccccc3)CC2c2ccccc2)cc1` (stereo not given), for which the TGI in [1], in [9], in assay [2], in [3], in assay [4] and in assay [5] was above 100 µM throughout. Moreover, the TGI in [6], in [7] and in [8] was above 100 µM in each case.

Regarding `COc1cccc(C23CCCC(C2)N(C)CC3OC(=O)c2ccccc2)c1OC` (stereo not given), the TGI in assay [10] is 44.9 µM; in assay [1] it was 77.7 µM; in [9] it was above 100 µM; in [2], above 100 µM; in [3], 38.4 µM; in [4] it was 81.8 µM. In addition, the total growth inhibition concentration (TGI) in assay [5], in assay [6] and in assay [8] was above 100 µM in each case.

As to `CS(=O)(=O)[O-].CS(=O)(=O)[O-].NC1CCCCC1N.[Pt+4]` (stereo not given), the GI50 in assay [1] is above 100 µM; in [9], above 100 µM; in assay [2], 79.1 µM; in assay [5] it was above 100 µM; in assay [6], 37.4 µM; in [7], above 100 µM. Further, the GI50 in assay [8] is above 100 µM. Moreover, the TGI in assay [1], in [9], in assay [2], in [5], in [6] and in [7] was above 100 µM in each case. Moreover, in assay [8], the TGI is above 100 µM.

For `CCN(CC)/[N+]([O-])=N/O`, the TGI in [1], in assay [9], in assay [2], in assay [5], in [6] and in [7] was above 100 µM throughout. This molecule also returned a TGI in assay [8] above 100 µM.

For `C=C(C)[C@@H]1CC[C@]2(CO)CC[C@]3(C)[C@H](CC[C@@H]4[C@@](C)(CCCN)[C@H](C(=C)C)CC[C@]43C)[C@@H]12`, the GI50 in assay [2] is 1.55 µM; in assay [3], 1.72 µM; in assay [4] it was 1.55 µM; in assay [6], 1.4 µM; in assay [8], 1.68 µM. Also, the TGI in assay [2] is 4.59 µM; in [3] it was 3.16 µM; in assay [4], 3.09 µM; in assay [6], 3.02 µM; in assay [8], 3.04 µM.

On to `CC(C)(Cc1ccccc1)N1C(=O)N1C(C)(C)Cc1ccccc1`, for which the TGI is above 100 µM in [10]; 48.4 µM in assay [9]; above 100 µM in [2]; above 100 µM in [3]; above 100 µM in assay [4]; above 100 µM in assay [5]. For the same molecule, the TGI in [6] is above 100 µM; in assay [7], 48.3 µM; in assay [8], 83.1 µM.

For `CC1(C)[C@@H](OC(N)=O)C=C[C@]2(CO)[C@H]3CC[C@]4(C)[C@@H](c5ccc(=O)oc5)[C@@H](Cl)C[C@]4(O)C3=CC[C@@H]12`, the GI50 in assay [1] was 0.00268 µM; in [9] it was 0.00402 µM; in assay [2], 0.00354 µM and 0.0025 µM; in assay [3], 0.00814 µM; in assay [4], 0.00189 µM; in assay [5], 0.012 µM. For the same molecule, the results for the GI50 in assay [6] and in assay [8] were below 0.0001 µM and 0.00426 µM, respectively. Also, the TGI in assay [1] is 0.0144 µM; in assay [9], 0.0294 µM; in [2] it was 0.0188 µM and 0.0562 µM; in assay [3], 0.0215 µM; in [4], 0.0137 µM; in assay [5] it was 0.029 µM. Moreover, the TGI was 0.0104 µM in assay [6] and 0.0163 µM in assay [8].

As for `Cn1ccc2c(c1=O)C(=O)OC2(C)C`, the TGI in assay [10], in [1], in assay [2], in assay [4], in assay [5] and in assay [6] was above 100 µM throughout. In addition, the TGI in assay [7] and in [8] was above 100 µM throughout.

As to `CCOC(=O)CCC(NC(=O)OCc1ccccc1)C(=O)NC(CCC(=O)OCC)C(=O)NC(CCC(=O)OCC)C(=O)NNC(=O)OC(C)(C)C` (stereo not given), the TGI in assay [10], in assay [9], in assay [2], in assay [4], in assay [5] and in assay [6] was above 100 µM each time. Further, the TGI in assay [7] and in [8] was above 100 µM in each case.

Consider `O=NN1CCCS1(=O)=O`, for which the TGI in assay [10], in [1], in [2], in assay [4], in assay [5] and in [6] was above 100 µM throughout. Further, the TGI in [7] and in assay [8] was above 100 µM each time.

For `COc1cc2oc(=O)cc(C)c2cc1OC`, the TGI in assay [1], in [9], in assay [2], in assay [3], in [4] and in assay [5] was above 100 µM throughout. For the same molecule, the TGI in assay [6] and in assay [8] was above 100 µM throughout.

As to `COc1ccc2c(c1)C(=O)C1CCC(=O)N1C2c1ccc2c(c1)OCO2` (stereo not given), the TGI in [10] stood at 11.6 µM; in assay [1], 36.3 µM; in assay [9] it was 41.6 µM; in [2], 39.8 µM; in assay [3], 24.4 µM; in [4] it was 29.5 µM. For the same molecule, the concentration for total growth inhibition (TGI) in assay [5] stood at 40.4 µM; in assay [6] it was 14.9 µM; in assay [8], 28.1 µM.

As to `CCC1(OC(=O)CN)C(=O)OCc2c1cc1n(c2=O)Cc2cc3cc4c(cc3nc2-1)OCO4` (stereo not given), the GI50 in [1] is below 0.01 µM; in assay [9], 0.135 µM and 0.221 µM; in assay [2], 0.0512 µM and 0.0225 µM; in assay [5], < 0.01 µM and 0.0484 µM; in assay [7], 0.0158 µM; in assay [8], below 0.01 µM. Further, the TGI in assay [1] is 0.0211 µM and < 0.01 µM; in assay [9] it was 3.15 µM and 1.07 µM; in assay [2], above 100 µM; in assay [5], 0.281 µM and 0.603 µM; in assay [7] it was 0.119 µM; in assay [8] it was 0.114 µM and 0.219 µM.
